Columns and labels:
LNCaP cells = experiment: Cell proliferation assay (CellTiter-Glo, 5-day exposure), LNCaP; format: cell-based, human; conditions: compared to 1-PEG-227Th and 46-E 227Th
Description: Inhibition of cell proliferation of Thorium-227 labeled PMSA SMOL ligands was tested different prostate cancer cell lines, namely 22Rv1, VCaP, C4-2 (all from ATCC, Manassas, Va., USA) and LNCaP (DMSZ, Braunschweig). Cells were seeded using the following conditions in 384 well plates (Corning) in 30 μl of growth media at 4000 cells/well for VCaP cells and 1000 cells/well for 22Rv1, C4-2 and LNCaP cells.
Cells were cultivated an incubator at 37° C. and 5% C02 over night. On the following days cells were treated in triplicates with serial dilutions of PSMA-SMOLs labeled with Th-227 at a specific activity of 375 kBq/nmol (RCP>70% as assessed by iTLC analysis; compounds where RCP was between 50-70% in individual experiments are marked with an * in the table) using a D300e Digital Dispenser (Tecan). In sister plates cell viability at treatment start (d=0) was determined using CellTiter-Glo® assay (CTG, Promega, Madison, Wis., USA), by adding 30 μl per well CTG solution, incubation for 10 min and reading of Luminescence in a PheraStarFSX instrument (BMG Labtech). After a 5-day exposure in the presenced of test compounds, cell viability of treated or untreated control cells was determined again using CellTiter-Glo® assay (Promega, Madison, Wis., USA). […] The DRC software is a Biobook Spreadsheet that was developed by Bayer AG and Bayer Business Services on the IDBS E-Workbook Suite platform (IDBS: ID Business Solutions Ltd., Guildford, UK).

[1] = tested on: LNCaP human prostate cancer cells; experiment: LNCaP xenograft efficacy study (T/C tumor area); format: in vivo, SCID mice; conditions: Example II; 750 kBq/kg weekly for 5 weeks; day 120
In short: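 SCID mice with testosterone pellet bearing s.c. flank LNCaP xenografts (5×10^6 cells in Matrigel) were treated i.v. with a defined radioactive dose once tumors reached 35-50 mm^2 (n=10/group). Tumor area (caliper, longest diameter × perpendicular) measured 2-3× weekly; T/C ratio calculated from tumor areas when vehicle group closed.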

[2] = target: T1, PSMA-expressing LNCaP cells (Homo sapiens, UniProt Q04609); experiment: Internalization assay (membrane bound and internalized Th-227); format: cell-based
T1 construct: PSMA-expressing LNCaP cells; endogenous in cells; host or cells: LNCaP
Description: For internalization assays 24 well plates (#3526, Corning) were coated with 200 μl Poly-L-Lysine (0.1 mg/ml, #3438-100-01, Fa. Cultrex) per well for 2 h at 37° C. […] Cells were incubated at 37° C. and 5% CO2 over night. On the following day 400 μl of the media were removed and a total of 200 μl growth medium added supplemented with PSMA-SMOLs labeled with Th-227 at 375 kBq/nmol in triplicates. Radiochemical purity of the labeling was analyzed by instant thin layer chromatography and found to be above 70% for all compounds used. The final concentration of radiolabeled SMOLs was in the test wells was 10 nM. Cells were incubated for 30 min or 2 h. After the incubation time supernatants were taken off and cells washed with PBS. Thereafter cells were washed twice with 0.2 ml 50 mM Glycine-HCl buffer (#55097, Sigma Aldrich) and once with PBS and the washing solutions combined in counting vials (#TK75-018, Fa. Corning) and subjected to gamma counting (1470 Wizard automatic gamma counter, Wallac). The resulting counts were attributed to membrane bound radioactivity. Cells were then lysed with 500 μl 0.3N NaOH (#181691.1211, Fa. PanReac AppliChem ITW Reagents) followed by another wash with 500 μl PBS. The NaOH lysate as well as the final wash were combined in vials and subjected to gamma counting as described above. Measured radioactivity was attributed to internalized fraction. Results were calculated as fmol of Th-227 per/10^cells in the membrane bound and internalized fractions from triplicate values.

[3] = Biodistribution study in LNCaP tumor-bearing mice (Th227 counted in organs); format: in vivo, SCID mice; conditions: 500 kBq/kg; for Th-227 in Blood / Th-227 in Femur bone / Th-227 in Kidneys / Th-227 in Liver / Th-227 in Spleen / Th-227 in Tumor / Th-227 in salivary glands: study b3004
In short: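 Th227 in excised, weighed organs was counted with a Germanium detector at predetermined time points (n=3 mice each). This followed one i.v. injection of radiolabelled compound into testosterone-supplemented SCID mice carrying LNCaP xenografts in Matrigel, dosed once tumors reached ~50 mm^2.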

[4] = 10 nM radiolabeled compound, Th-227 at 375 kBq/nmol, 30 min incubation, triplicates
[5] = 10 nM radiolabeled compound, Th-227 at 375 kBq/nmol, 2 h incubation, triplicates
[6] = comparison of % injected dose per gram tissue

T1 sequence (Q04609 whole entry): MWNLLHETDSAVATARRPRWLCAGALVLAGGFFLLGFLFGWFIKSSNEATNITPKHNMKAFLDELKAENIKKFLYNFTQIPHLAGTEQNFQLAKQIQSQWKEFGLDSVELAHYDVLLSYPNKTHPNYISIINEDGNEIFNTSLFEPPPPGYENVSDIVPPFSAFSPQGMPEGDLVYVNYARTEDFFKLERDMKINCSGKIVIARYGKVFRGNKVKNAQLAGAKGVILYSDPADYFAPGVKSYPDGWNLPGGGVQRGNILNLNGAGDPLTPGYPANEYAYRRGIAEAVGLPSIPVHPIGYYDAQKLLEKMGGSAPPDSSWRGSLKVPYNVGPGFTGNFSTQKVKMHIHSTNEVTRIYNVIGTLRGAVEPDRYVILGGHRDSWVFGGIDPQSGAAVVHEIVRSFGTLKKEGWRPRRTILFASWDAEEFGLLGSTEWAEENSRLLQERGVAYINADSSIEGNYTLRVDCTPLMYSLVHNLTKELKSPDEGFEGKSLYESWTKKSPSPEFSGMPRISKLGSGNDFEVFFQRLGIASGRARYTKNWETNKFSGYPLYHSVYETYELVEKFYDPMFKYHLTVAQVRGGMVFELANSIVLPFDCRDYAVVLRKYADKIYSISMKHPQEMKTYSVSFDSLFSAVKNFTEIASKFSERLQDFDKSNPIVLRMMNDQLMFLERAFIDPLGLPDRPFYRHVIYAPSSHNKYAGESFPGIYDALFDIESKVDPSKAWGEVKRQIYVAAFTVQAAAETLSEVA

## CC1=CC2=C3[O][227Th-5]45678([O]C9=C(C=C(C)N(CC(=O)O)C9=[O+]4)C(=O)NCCN(CCCN(CCNC(=O)C4=C([O]5)C(=[O+]6)N(CC(=O)O)C(C)=C4)CCNC(=O)C4=C([OH+]7)C(=[O+]8)N(CC(=O)NC[C@H]5CC[C@H](C(=O)N[C@@H](Cc6ccc7ccccc7c6)C(=O)NCCCC[C@H](NC(=O)N[C@@H](CCC(=O)O)C(=O)O)C(=O)O)CC5)C(C)=C4)CCNC2=O)[O+]=C3N1CC(=O)O [1-C monomer-227Th]
LNCaP cells
  antiproliferative activity on LnCap cells (in words): superior antiproliferative activity
[1]
  Tumor response: full response
[2]; [4]
  Internalized in LNCaP fmol/10^6 cells 30 min: 84 fmol/10^6 cells
  Membrane bound in LNCaP fmol/10^6 cells 30 min: 105 fmol/10^6 cells
[2]; [5]
  Internalized in LNCaP fmol/10^6 cells 2 h: 291 fmol/10^6 cells
  Membrane bound in LNCaP fmol/10^6 cells 2 h: 260 fmol/10^6 cells
[2]; after 30 min and 2 h, compared to 1-B-227Th bearing a DOTA chelator
  intracellular radioactivity on PSMA-expressing LNCaP cells (in words): increased intracellular radioactivity
[3]; [6]
  Accumulation in the tumor (in words): much higher accumulation in the tumor
  Background in blood, liver and spleen (in words): lower background compared to 1-F-227Th
[3]; 1 h
  Th-227 in Blood: 0.63 % ID Th-227/g organ
  Th-227 in Femur bone: 0.96 % ID Th-227/g organ
  Th-227 in Kidneys: 119.59 % ID Th-227/g organ
  Th-227 in Liver: 0.69 % ID Th-227/g organ
  Th-227 in Spleen: 4.69 % ID Th-227/g organ
  Th-227 in Tumor: 31.73 % ID Th-227/g organ
  Th-227 in salivary glands: 9.62 % ID Th-227/g organ
[3]; 24 h
  Th-227 in Blood: 0.03 % ID Th-227/g organ
  Th-227 in Femur bone: 1.08 % ID Th-227/g organ
  Th-227 in Kidneys: 72.59 % ID Th-227/g organ
  Th-227 in Liver: 0.35 % ID Th-227/g organ
  Th-227 in Spleen: 1.79 % ID Th-227/g organ
  Th-227 in Tumor: 16.36 % ID Th-227/g organ
  Th-227 in salivary glands: 1.41 % ID Th-227/g organ
[3]; 72 h
  Th-227 in Blood: 0.01 % ID Th-227/g organ
  Th-227 in Femur bone: 1.12 % ID Th-227/g organ
  Th-227 in Kidneys: 24.80 % ID Th-227/g organ
  Th-227 in Liver: 0.36 % ID Th-227/g organ
  Th-227 in Spleen: 0.76 % ID Th-227/g organ
  Th-227 in Tumor: 9.02 % ID Th-227/g organ
  Th-227 in salivary glands: 1.13 % ID Th-227/g organ
[3]; 168 h
  Th-227 in Blood: 0.00 % ID Th-227/g organ
  Th-227 in Femur bone: 1.28 % ID Th-227/g organ
  Th-227 in Kidneys: 12.66. % ID Th-227/g organ
  Th-227 in Liver: 0.33 % ID Th-227/g organ
  Th-227 in Spleen: 0.78 % ID Th-227/g organ
  Th-227 in Tumor: 6.20 % ID Th-227/g organ
  Th-227 in salivary glands: 1.23 % ID Th-227/g organ
[3]; 336 h
  Th-227 in Blood: 0.00 % ID Th-227/g organ
  Th-227 in Femur bone: 1.13 % ID Th-227/g organ
  Th-227 in Kidneys: 3.41 % ID Th-227/g organ
  Th-227 in Liver: 0.31 % ID Th-227/g organ
  Th-227 in Spleen: 0.70 % ID Th-227/g organ
  Th-227 in Tumor: 2.78 % ID Th-227/g organ
  Th-227 in salivary glands: 1.29 % ID Th-227/g organ

Source: US20230072421A1, “TARGETED RADIOPHARMACEUTICALS FOR THE DIAGNOSIS AND TREATMENT OF PROSTATE CANCER” (Bayer AS, priority 2019, published 2023)
